# Measured values taken from patent US20140275166A1, “SPINTRAPS AND SPIN LABELS AND THEIR HYDROXYLAMINES FOR PERI- AND POST-MENOPAUSAL SYNDROME” (priority 2013, published 2014).
# Where two headings read alike, the source gives them in different places.
# How the values were obtained:
# acute ischemic stroke = conditions: animal models versus humans; cited from earlier work
# [1] = test system: perimenopausal symptoms, including hot flashes, sweating, and discomfort; assay: Oral treatment of peri- and post-menopausal symptoms in one patient; assay type: in vivo, human
# Procedure: The reduced form of TEMPOL (TEMPOL-H) or equivalent pharmacologically-active spin label/spintrap is prepared by mixing together 2 grams of TEMPOL or a pharmacologically effective amount of another spin-label or spin trap such as methynitrosopropane, 20 grams of ascorbic acid or other reducing compound in 100 ml of distilled water. The formulation is used as is. The solution is slightly-bitter. The formulation can be administered diluted in a suitable liquid such as juice, tea, or coffee. An equivalent dry form as 10 mg of tempol mixed with 100 mg of ascorbic acid or equivalent reducing substance can be easily prepared in capsule or tablet form.
# One-half ml of the above solution, comprising 10 mg TEMPOL plus 100 mg ascorbic acid, was administered orally 1-3 times a day to a 50 kg person with perimenopausal symptoms, including hot flashes, sweating, and discomfort.
# Parental modes of administration such as intravenous, intramuscular, subcutaneous, intraperitoneal, transrectal and so forth are also possible, as are topical modes of administration such as in lotions, creams, gels, and topically-compatible suspensions and solutions.
# [2] = test system: arterioles from intact and OVE females; conditions: cited from earlier work
# SHR = conditions: cited from earlier work
# [3] = test system: fibrocystic disease of breast; conditions: in vivo; cited from earlier work
# [4] = 10 mg TEMPOL plus 100 mg ascorbic acid orally 1-3 times a day, 50 kg person
structure (smiles),measurement,setting,value
"CC(C)(C)[N+]([O-])=Cc1ccc(S(=O)(=O)[O-])cc1S(=O)(=O)[O-].[Na+].[Na+] [NXY-059, disulfonyl PBN]",neuroprotective efficacy,acute ischemic stroke,"effective in animal models, but not in humans"
"CC(C)(C)[N+]([O-])=Cc1ccccc1 [Phenylbutylnitrone, 1-alpha-phenyl-tert-butyl nitrone]",efficacy on perimenopausal symptoms,[1]; 100 mg dose per day,also effective
"CC1(C)CC(O)CC(C)(C)N1[O] [TEMPOL, 4-hydroxy-TEMPO]",efficacy on perimenopausal symptoms,"[1]; Tempol itself, without reducing agent, at the same doses",effective at the same doses
same,flow-induced increases in NO and subsequent vasodilation,[2],blunted flow-induced increases in NO and subsequent vasodilation
same,antihypertensive response,SHR; male SHR and female SHR given tempol for the first 15 weeks of life,had an antihypertensive response
same,antihypertensive response,SHR; postmenopausal female SHR,no response was observed
same,BP lowering by sex and age,"SHR; young female versus young male SHR, and after menopause",more effective in lowering the BP of young female than young male SHR and became less effective after menopause
"CC1(C)CC(O)CC(C)(C)N1O [TEMPOL-H, the hydroxylamine reduced form of the nitroxide 4-hydroxy-2,2,6,6-tetramethylpiperidin-1-yloxy]",efficacy in fibrocystic disease of breast,[3],effective
same,skin changes typical of menopause,[1]; 10 mg TEMPOL plus 100 mg ascorbic acid orally 1-3 times a day,yet to develop the skin changes typical of menopause
same,effect on perimenopausal symptoms,[1]; [4],"disappearance of hot flashes, sweating, and discomfort"
same,time to first results of treatment,[1]; [4],1-2 weeks
same,symptoms on cessation of treatment,"[1]; after long-term relief, treatment stopped",symptoms eventually reappear on cessation of treatment
same,perimenopausal symptoms during earlier TEMPOL-H treatment for fibrocystic disease of breast,"[1]; same patient, menses stopped",had not presented with perimenopausal symptoms
same,symptoms upon resumption of treatment,[1]; treatment resumed after cessation,symptoms disappear
